In ChEMBL document CHEMBL4311992, “Discovery of 3-(((9H-purin-6-yl)amino)methyl)-4,6-dimethylpyridin-2(1H)-one derivatives as novel tubulin polymerization inhibitors for treatment of cancer” (Eur J Med Chem, 2019):
Active and inactive are the calls of the source. The rule behind the calls is not given here.

Experiments:
[1] = molecular target: Casein kinase I isoform gamma-1 (Homo sapiens) (UniProt Q9HCP0); test: Inhibition of recombinant human CK1gamma1 (25 to 355 residues) assessed as residual activity at 10 uM using KRRRALS(p)VASLPGL as substrate measured after 40 mins in presence of [gamma33P]ATP by scintillation counting method
HCT-116 [2] = test: Antitumor activity against human HCT116 cells xenografted in nude BALB/c mouse assessed as tumor growth inhibition at 80 mg/kg, po administered once daily for 4 weeks measured post-last dose relative to control; type: functional; details: HCT-116, po, 672 h, read-out: TGI
[3] = molecular target: Tyrosine-protein kinase JAK2 (Homo sapiens) (UniProt O60674); test: Inhibition of recombinant human JAK2 (808 to end residues) assessed as residual activity at 10 uM using KTFCGTPEYLAPEVRREPRILSEEEQEMFRDFDYIADWC as substrate measured after 40 mins in presence of [gamma33P]ATP by scintillation counting method
[4] = tested on: Homeodomain-interacting protein kinase 2 (Homo sapiens), Q9H2X6 [UNDEFINED MUTATION]; test: Inhibition of recombinant human HIPK2 I471N mutant (165 to 564 residues) assessed as residual activity at 10 uM using myelin basic protein as substrate measured after 40 mins in presence of [gamma33P]ATP by scintillation counting method
[5] = tested on: Hepatocyte growth factor receptor (Homo sapiens), P08581 [D1228H]; test: Inhibition of recombinant human MET A1209G/V1290L/D1246H mutant (974 to end residues) assessed as residual activity at 10 uM using KKKGQEEEYVFIE as substrate measured after 40 mins in presence of [gamma33P]ATP by scintillation counting method
[6] = molecular target: Myosin light chain kinase, smooth muscle (Homo sapiens) (UniProt Q15746); test: Inhibition of recombinant human MLCK (1425 to 1771 residues) assessed as residual activity at 10 uM using calmodulin as substrate measured after 40 mins in presence of [gamma33P]ATP by scintillation counting method
[7] = tested on: Casein kinase I isoform gamma-3 (Homo sapiens), Q9Y6M4 [UNDEFINED MUTATION]; test: Inhibition of recombinant human CK1gamma3 K91E/R174G/E302D mutant (1 to 330 residues) assessed as residual activity at 10 uM using KRRRALS(p)VASLPGL as substrate measured after 40 mins in presence of [gamma33P]ATP by scintillation counting method
SW-620 [8] = test: Cell cycle arrest in human SW620 cells assessed as up regulation of cdc25 expression up to 150 nM after 24 hrs by Western blot analysis; type: functional, cell-based
[9] = molecular target: TRAF2 and NCK-interacting protein kinase (Homo sapiens) (UniProt Q9UKE5); test: Inhibition of human TNIK (1 to 367 residues) using RLGRDKYKTLRQIRQ as substrate measured after 40 mins in presence of [gamma33P]ATP by scintillation counting method; design: scale not given: the % may be the effect or the level left
[10] = molecular target: Casein kinase 2 (Homo sapiens) (UniProt P67870+P68400+P19784+Q8NEV1); test: Inhibition of human CK2 assessed as residual activity at 10 uM; type: protein assay
SW-620 [11] = test: Induction of apoptosis in human SW620 cells assessed as viable cells at 25 nM measured after 48 hrs by Annexin V-FITC/propidium iodide staining-based flow cytometry (reference value: 94.7%); type: functional; details: SW-620, 48 h, read-out: Activity
[12] = molecular target: Tyrosine-protein kinase JAK3 (Homo sapiens) (UniProt P52333); test: Inhibition of recombinant human JAK3 (781 to end residues) assessed as residual activity at 10 uM using GGEEEEYFELVKKKK as substrate measured after 40 mins in presence of [gamma33P]ATP by scintillation counting method
[13] = molecular target: Inhibitor of nuclear factor kappa-B kinase subunit epsilon (Homo sapiens) (UniProt Q14164); test: Inhibition of recombinant full-length human IKKepsilon assessed as residual activity at 10 uM using casein as substrate measured after 40 mins in presence of [gamma33P]ATP by scintillation counting method
HCT-116 [14] = test: Cell cycle arrest in human HCT116 cells assessed as up regulation of cdc25 expression up to 150 nM after 24 hrs by Western blot analysis; type: functional, cell-based
[15] = molecular target: Tyrosine-protein kinase Fes/Fps (Homo sapiens) (UniProt P07332); test: Inhibition of recombinant human FES (2 to end residues) assessed as residual activity at 10 uM using poly(Glu, Tyr) 4:1 as substrate measured after 40 mins in presence of [gamma33P]ATP by scintillation counting method
[16] = molecular target: CDK12/Cyclin K (Homo sapiens) (UniProt O75909+Q9NYV4); test: Inhibition of recombinant full length human CDK12/cyclinK assessed as residual activity at 10 uM using RSRSRSRSRSRSRSR as substrate measured after 120 mins in presence of [gamma33P]ATP by scintillation counting method; type: protein-complex assay
[17] = tested on: Mast/stem cell growth factor receptor Kit (Homo sapiens), P10721 [V654A]; test: Inhibition of recombinant human c-Kit V654A mutant (544 to end residues) assessed as residual activity at 10 uM using GGMEDIYFEFMGGKKK as substrate measured after 40 mins in presence of [gamma33P]ATP by scintillation counting method
HCT-116 [18] = test: cells; details: Homo sapiens, HCT-116, 72 h
Description: Antiproliferative activity against human HCT116 cells after 72 hrs by MTT assay

[19] = molecular target: Mitogen-activated protein kinase 1 (Homo sapiens) (UniProt P28482); test: Inhibition of recombinant full-length human MAPK1 assessed as residual activity at 10 uM using myelin basic protein as substrate measured after 40 mins in presence of [gamma33P]ATP by scintillation counting method
[20] = molecular target: Interferon-induced, double-stranded RNA-activated protein kinase (Homo sapiens) (UniProt P19525); test: Inhibition of recombinant human PKR (252 to end residues) assessed as residual activity at 10 uM using RSRSRSRSRSRSRSR as substrate measured after 40 mins in presence of [gamma33P]ATP by scintillation counting method
[21] = tested on: Serine/threonine-protein kinase N1 (Homo sapiens), Q16512 [V901I]; test: Inhibition of human PRK1 V901I mutant (498 to end residues) using KKLNRTLSFAEPG as substrate measured after 40 mins in presence of [gamma33P]ATP by scintillation counting method; design: scale not given: the % may be the effect or the level left
[22] = molecular target: Protein-tyrosine kinase 6 (Homo sapiens) (UniProt Q13882); test: Inhibition of full-length recombinant human BRK assessed as residual activity at 10 uM using poly(Glu, Tyr) 4:1 as substrate measured after 40 mins in presence of [gamma33P]ATP by scintillation counting method
[23] = molecular target: Serine/threonine-protein kinase Chk1 (Homo sapiens) (UniProt O14757); test: Inhibition of recombinant full length human CHK1 assessed as residual activity at 10 uM using KKKVSRSGLYRSPSMPENLNRPR as substrate measured after 40 mins in presence of [gamma33P]ATP by scintillation counting method
[24] = Toxicity in nude BALB/c mouse assessed as change in ALT level at 40 to 80 mg/kg, po once daily for 4 weeks measured post-last dose; type: organism-based; details: in vivo, 672 h

Tyrosine-protein kinase JAK3 (Homo sapiens), sequence (P52333 whole entry): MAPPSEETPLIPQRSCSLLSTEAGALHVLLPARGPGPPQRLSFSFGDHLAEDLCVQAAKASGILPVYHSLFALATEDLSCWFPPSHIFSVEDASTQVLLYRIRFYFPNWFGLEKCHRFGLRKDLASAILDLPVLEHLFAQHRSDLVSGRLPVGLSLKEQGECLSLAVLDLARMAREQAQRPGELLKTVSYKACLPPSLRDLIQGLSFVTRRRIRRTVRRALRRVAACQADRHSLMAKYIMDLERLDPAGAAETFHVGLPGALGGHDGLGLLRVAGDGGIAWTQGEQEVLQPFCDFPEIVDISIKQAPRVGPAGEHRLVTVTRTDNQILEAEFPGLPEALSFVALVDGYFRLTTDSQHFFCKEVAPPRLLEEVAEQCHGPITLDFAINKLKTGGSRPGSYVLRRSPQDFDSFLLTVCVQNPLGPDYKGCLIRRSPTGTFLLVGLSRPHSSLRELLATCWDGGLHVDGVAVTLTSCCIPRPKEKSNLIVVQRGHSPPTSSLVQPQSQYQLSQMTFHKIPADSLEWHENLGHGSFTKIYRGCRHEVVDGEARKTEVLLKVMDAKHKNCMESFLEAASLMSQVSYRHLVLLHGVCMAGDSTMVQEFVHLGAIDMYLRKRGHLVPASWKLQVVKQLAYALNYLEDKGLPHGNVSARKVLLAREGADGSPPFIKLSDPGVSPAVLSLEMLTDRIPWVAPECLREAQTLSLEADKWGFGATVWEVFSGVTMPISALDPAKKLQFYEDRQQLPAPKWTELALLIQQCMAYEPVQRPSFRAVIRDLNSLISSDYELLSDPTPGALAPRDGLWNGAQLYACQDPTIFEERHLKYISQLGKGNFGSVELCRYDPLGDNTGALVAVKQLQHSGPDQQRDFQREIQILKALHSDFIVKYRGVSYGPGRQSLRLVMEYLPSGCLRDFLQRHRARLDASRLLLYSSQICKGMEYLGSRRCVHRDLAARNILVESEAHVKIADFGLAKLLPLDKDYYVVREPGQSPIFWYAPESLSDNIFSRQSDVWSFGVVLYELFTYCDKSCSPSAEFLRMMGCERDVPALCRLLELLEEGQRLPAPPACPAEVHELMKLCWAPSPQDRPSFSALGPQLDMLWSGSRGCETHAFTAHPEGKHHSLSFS
Interferon-induced, double-stranded RNA-activated protein kinase (Homo sapiens), sequence (P19525 whole entry): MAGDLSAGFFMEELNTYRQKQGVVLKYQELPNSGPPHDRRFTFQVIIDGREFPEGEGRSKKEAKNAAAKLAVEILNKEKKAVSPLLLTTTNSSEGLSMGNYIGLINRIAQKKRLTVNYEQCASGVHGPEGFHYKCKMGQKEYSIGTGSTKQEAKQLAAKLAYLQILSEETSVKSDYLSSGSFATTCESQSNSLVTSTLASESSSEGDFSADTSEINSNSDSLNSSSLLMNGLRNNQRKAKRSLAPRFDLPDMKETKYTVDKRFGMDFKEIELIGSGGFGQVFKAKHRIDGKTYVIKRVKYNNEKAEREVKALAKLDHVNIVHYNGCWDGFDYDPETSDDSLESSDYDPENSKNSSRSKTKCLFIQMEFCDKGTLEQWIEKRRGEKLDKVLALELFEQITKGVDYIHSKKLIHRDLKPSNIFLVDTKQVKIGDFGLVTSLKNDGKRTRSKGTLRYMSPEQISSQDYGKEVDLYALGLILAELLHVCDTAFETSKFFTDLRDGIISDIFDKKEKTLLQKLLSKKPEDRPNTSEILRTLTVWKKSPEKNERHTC
Myosin light chain kinase, smooth muscle (Homo sapiens), sequence (Q15746 whole entry, the tested form may be a part, canonical isoform): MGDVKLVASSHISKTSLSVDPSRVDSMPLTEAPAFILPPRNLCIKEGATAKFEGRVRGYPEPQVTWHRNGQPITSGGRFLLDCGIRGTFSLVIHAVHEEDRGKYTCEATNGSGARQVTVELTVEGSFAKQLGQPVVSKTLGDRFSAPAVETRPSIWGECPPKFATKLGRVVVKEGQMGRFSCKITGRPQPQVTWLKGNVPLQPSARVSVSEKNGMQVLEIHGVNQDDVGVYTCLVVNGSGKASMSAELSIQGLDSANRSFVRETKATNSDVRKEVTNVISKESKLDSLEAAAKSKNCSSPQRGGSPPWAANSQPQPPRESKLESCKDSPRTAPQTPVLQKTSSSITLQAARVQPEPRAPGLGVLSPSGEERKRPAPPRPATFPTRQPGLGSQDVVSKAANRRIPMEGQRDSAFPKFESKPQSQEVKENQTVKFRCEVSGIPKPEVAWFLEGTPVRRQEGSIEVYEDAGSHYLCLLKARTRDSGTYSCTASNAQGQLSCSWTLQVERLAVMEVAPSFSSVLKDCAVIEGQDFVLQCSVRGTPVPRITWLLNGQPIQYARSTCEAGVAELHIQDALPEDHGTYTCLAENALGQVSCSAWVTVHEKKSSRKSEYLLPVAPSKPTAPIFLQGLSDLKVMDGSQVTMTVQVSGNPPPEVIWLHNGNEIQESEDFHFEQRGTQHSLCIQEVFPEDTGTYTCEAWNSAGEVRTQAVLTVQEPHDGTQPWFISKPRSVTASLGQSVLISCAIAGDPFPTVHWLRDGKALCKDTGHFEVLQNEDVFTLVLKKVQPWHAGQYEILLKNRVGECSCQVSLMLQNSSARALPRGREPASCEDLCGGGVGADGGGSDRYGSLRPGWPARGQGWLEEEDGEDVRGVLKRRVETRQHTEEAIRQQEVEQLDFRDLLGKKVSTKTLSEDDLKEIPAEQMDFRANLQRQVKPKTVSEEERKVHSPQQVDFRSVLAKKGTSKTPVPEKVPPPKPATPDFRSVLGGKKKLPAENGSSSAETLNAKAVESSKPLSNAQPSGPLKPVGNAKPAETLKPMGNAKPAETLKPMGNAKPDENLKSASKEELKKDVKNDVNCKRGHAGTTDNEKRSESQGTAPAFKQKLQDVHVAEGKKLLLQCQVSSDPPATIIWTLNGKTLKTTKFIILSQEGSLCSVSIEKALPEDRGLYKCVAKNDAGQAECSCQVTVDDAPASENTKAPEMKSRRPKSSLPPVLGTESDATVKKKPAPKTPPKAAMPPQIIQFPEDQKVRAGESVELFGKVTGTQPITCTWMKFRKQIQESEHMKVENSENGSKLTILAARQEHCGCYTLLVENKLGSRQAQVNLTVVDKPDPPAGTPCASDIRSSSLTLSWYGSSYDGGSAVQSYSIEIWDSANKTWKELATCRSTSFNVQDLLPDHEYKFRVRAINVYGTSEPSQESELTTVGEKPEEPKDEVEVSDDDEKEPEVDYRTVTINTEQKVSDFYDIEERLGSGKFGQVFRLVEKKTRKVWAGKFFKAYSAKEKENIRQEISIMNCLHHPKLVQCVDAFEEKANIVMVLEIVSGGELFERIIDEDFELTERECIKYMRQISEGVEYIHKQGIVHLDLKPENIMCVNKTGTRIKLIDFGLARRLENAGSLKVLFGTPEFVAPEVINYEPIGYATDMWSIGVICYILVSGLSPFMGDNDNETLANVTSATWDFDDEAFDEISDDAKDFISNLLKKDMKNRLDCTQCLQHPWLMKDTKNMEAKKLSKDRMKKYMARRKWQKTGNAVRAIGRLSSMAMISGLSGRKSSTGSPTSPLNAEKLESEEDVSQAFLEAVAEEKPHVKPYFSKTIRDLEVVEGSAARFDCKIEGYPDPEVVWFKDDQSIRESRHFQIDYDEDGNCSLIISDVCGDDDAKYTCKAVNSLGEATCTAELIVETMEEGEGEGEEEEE
Inhibitor of nuclear factor kappa-B kinase subunit epsilon (Homo sapiens), sequence (Q14164 whole entry): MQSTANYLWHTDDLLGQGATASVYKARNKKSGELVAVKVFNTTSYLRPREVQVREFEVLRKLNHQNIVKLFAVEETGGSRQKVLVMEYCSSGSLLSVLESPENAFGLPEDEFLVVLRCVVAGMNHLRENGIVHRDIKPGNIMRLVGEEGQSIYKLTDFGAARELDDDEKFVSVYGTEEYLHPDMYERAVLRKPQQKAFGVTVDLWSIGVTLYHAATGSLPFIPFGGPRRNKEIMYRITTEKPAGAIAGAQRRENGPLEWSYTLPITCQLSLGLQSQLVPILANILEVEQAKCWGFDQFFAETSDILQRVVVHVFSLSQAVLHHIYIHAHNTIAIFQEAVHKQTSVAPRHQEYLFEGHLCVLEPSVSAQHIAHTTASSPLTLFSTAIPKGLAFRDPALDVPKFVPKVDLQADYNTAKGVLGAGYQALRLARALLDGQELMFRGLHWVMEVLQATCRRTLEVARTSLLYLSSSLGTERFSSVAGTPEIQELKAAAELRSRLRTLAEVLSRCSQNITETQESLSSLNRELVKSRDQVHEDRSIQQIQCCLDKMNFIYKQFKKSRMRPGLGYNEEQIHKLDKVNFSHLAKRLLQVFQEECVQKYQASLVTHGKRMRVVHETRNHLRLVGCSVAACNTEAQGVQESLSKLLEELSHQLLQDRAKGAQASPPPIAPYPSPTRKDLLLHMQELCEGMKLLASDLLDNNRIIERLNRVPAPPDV
Mitogen-activated protein kinase 1 (Homo sapiens), sequence (P28482 whole entry): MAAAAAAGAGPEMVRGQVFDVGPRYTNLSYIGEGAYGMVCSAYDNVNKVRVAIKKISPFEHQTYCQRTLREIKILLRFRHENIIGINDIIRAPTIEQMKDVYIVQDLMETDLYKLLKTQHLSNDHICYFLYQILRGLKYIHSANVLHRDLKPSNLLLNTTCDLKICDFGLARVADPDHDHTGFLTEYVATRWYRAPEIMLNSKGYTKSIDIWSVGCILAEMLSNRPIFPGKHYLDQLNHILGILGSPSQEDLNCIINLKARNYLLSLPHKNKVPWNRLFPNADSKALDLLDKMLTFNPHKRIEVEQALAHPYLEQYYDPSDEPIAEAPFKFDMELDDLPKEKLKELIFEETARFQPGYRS
Casein kinase I isoform gamma-1 (Homo sapiens), sequence (Q9HCP0 whole entry, looked up, the tested form may be a part, canonical isoform): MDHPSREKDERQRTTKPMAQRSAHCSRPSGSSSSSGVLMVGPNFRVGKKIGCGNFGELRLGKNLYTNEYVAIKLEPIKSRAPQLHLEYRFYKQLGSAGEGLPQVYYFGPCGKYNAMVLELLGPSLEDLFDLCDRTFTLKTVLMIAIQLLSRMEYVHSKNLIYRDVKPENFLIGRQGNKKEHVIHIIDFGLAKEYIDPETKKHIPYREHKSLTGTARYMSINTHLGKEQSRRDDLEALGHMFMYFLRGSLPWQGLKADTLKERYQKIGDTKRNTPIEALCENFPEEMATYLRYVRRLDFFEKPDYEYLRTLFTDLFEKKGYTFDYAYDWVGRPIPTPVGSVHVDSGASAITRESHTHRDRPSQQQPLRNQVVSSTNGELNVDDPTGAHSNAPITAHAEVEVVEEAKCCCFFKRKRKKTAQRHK

For `Cc1cc(C)c(CNc2nc(Cl)nc3c2ncn3C2CCCC2)c(=O)[nH]1`, the Activity [1] was 94.5%, the inhibition in vivo at 80 mg/kg (HCT-116 [2]) was 71.6% and the Activity [3] was 115%. For the same compound, the Activity [4] was 104%, the Activity [5] was 108% and the Activity [6] was 94%. For the same compound, the Activity [7] was 106%, the Activity (SW-620 [8]) was “Active” and the Activity [9] was 108%. It also gave an Activity [10] of 111%, a viability at 0.025 µM (SW-620 [11]) of 61.8% and an Activity [12] of 90%. The Activity [13] was 98.5%, the Activity (HCT-116 [14]) was “Active” and the Activity [15] was 100%. The Activity [16] was 104%, the Activity [17] was 90% and the IC50 (HCT-116 [18]) was 60 nM. The Activity [19] was 97.5%, the Activity [20] was 109% and the Activity [21] was 98.5%. For the same compound, the Activity [22] was 100%, the Activity [23] was 106% and the Activity [24] was “Non-Toxic”.
